Test results taken from ChEMBL document CHEMBL1201862, “PubChem BioAssay data set” (2004).
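Compound exposure: 48 hours, 5 concentrations, 96-well plates. Abbreviation: GI50, concentration required for 50% inhibition of growth.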 Active and inactive are the calls of the source. Rule as the data show it: active = GI50 up to about 1.1 µM and inactive = higher.

What was measured:
Assay in all cases: DTP human tumour cell line panel, 48 h
COLO 205 = tested on: COLO 205
HOP-62 = tested on: HOP-62
Hs-578T = tested on: Hs-578T
NCI-H226 = tested on: NCI-H226
EKVX = tested on: EKVX
HOP-92 = tested on: HOP-92
SNB-19 = tested on: SNB-19
SK-MEL-5 = tested on: SK-MEL-5
TK-10 = tested on: TK-10
HL-60 = tested on: HL-60
RXF 393 = tested on: RXF 393
U-251 = tested on: U-251
KM12 = tested on: KM12
A498 = tested on: A498
DU-145 = tested on: DU-145
NCI-H23 = tested on: NCI-H23
NCI-H522 = tested on: NCI-H522
SW-620 = tested on: SW-620
NCI/ADR-RES = tested on: NCI/ADR-RES
ACHN = tested on: ACHN
SK-MEL-2 = tested on: SK-MEL-2
SF-295 = tested on: SF-295
NCI-H460 = tested on: NCI-H460
T47D = tested on: T47D
Malme-3M = tested on: Malme-3M
K562 = tested on: K562
A549 = tested on: A549
HCC 2998 = tested on: HCC 2998
CCRF-CEM = tested on: CCRF-CEM
HT-29 = tested on: HT-29
SR = tested on: SR
SN12C = tested on: SN12C
SF-268 = tested on: SF-268
M14 = tested on: M14
UO-31 = tested on: UO-31
UACC-62 = tested on: UACC-62
MDA-MB-435 = tested on: MDA-MB-435
HCT-15 = tested on: HCT-15
OVCAR-4 = tested on: OVCAR-4
SF-539 = tested on: SF-539
HCT-116 = tested on: HCT-116
MDA-N = tested on: MDA-N
SK-MEL-28 = tested on: SK-MEL-28
OVCAR-3 = tested on: OVCAR-3
LOX IMVI = tested on: LOX IMVI
MDA-MB-231 = tested on: MDA-MB-231
SNB-75 = tested on: SNB-75
UACC-257 = tested on: UACC-257
RPMI-8226 = tested on: RPMI-8226
CAKI-1 = tested on: CAKI-1
MOLT-4 = tested on: MOLT-4
786-0 = tested on: 786-0
IGROV-1 = tested on: IGROV-1
SK-OV-3 = tested on: SK-OV-3
OVCAR-8 = tested on: OVCAR-8
PC-3 = tested on: PC-3
MCF7 = tested on: MCF7
OVCAR-5 = tested on: OVCAR-5

O=C1C=CC2C3C(=O)N(c4ccccc4)C(=O)C3C1N2Cc1ccccc1 (stereo not given)
GI50 (COLO 205): 3.1 µM (inactive)
GI50 (HOP-62): 3.72 µM (inactive)
GI50 (Hs-578T): 3.51 µM (inactive)
GI50 (NCI-H226): 8.07 µM (inactive)

CC(=O)c1c(-c2cccc3ccccc23)c(C#N)c(=S)n(C2OC(CO)C(O)C(O)C2O)c1-c1ccccc1 (stereo not given)
GI50 (EKVX): 0.0509 µM (active)
GI50 (HOP-92): 13.5 µM (inactive)

CCOP(=O)(OCC)C(Nc1ccc(Cl)cc1)c1ccc(F)cc1 (stereo not given)
GI50 (SNB-19): 26.7 µM (inactive)
GI50 (SK-MEL-5): 17.3 µM (inactive)
GI50 (TK-10): 42.7 µM (inactive)
GI50 (HL-60): 18.6 µM (inactive)
GI50 (RXF 393): 21.2 µM (inactive)
GI50 (U-251): 18.2 µM (inactive)
GI50 (COLO 205): 29.4 µM (inactive)
GI50 (KM12): 31 µM (inactive)
GI50 (A498): 18.5 µM (inactive)
GI50 (DU-145): 24.5 µM (inactive)
GI50 (NCI-H23): 16.3 µM (inactive)
GI50 (NCI-H522): 20.3 µM (inactive)
GI50 (HOP-62): 19 µM (inactive)
GI50 (SW-620): > 10 µM (inactive)
GI50 (NCI/ADR-RES): 22.8 µM (inactive)
GI50 (ACHN): 28.4 µM (inactive)
GI50 (SK-MEL-2): 14.6 µM (inactive)
GI50 (SF-295): 19.8 µM (inactive)
GI50 (Hs-578T): 20.8 µM (inactive)
GI50 (EKVX): 29.2 µM (inactive)
GI50 (NCI-H460): 19.5 µM (inactive)
GI50 (T47D): 16.6 µM (inactive)
GI50 (Malme-3M): 19.1 µM (inactive)
GI50 (K562): 25.5 µM (inactive)
GI50 (A549): 31 µM (inactive)
GI50 (HCC 2998): 22 µM (inactive)
GI50 (CCRF-CEM): 29.5 µM (inactive)
GI50 (HT-29): 22 µM (inactive)
GI50 (SR): 40.8 µM (inactive)
GI50 (HOP-92): 22 µM (inactive)
GI50 (SN12C): 18.4 µM (inactive)
GI50 (SF-268): 20.1 µM (inactive)
GI50 (M14): 16.6 µM (inactive)
GI50 (UO-31): 20.7 µM (inactive)
GI50 (UACC-62): 4.7 µM (inactive)
GI50 (MDA-MB-435): 15.7 µM (inactive)
GI50 (HCT-15): 26.7 µM
GI50 (OVCAR-4): 36.2 µM (inactive)
GI50 (SF-539): 22 µM (inactive)
GI50 (HCT-116): 19.2 µM (inactive)
GI50 (MDA-N): 19.9 µM (inactive)
GI50 (SK-MEL-28): 18.4 µM (inactive)
GI50 (OVCAR-3): 29.5 µM (inactive)
GI50 (LOX IMVI): 15.7 µM (inactive)
GI50 (MDA-MB-231): 21.2 µM (inactive)
GI50 (SNB-75): 20.5 µM (inactive)
GI50 (UACC-257): 18.5 µM (inactive)
GI50 (RPMI-8226): 22.5 µM (inactive)
GI50 (CAKI-1): 22.3 µM (inactive)
GI50 (MOLT-4): 23.1 µM (inactive)
GI50 (786-0): 19.3 µM (inactive)
GI50 (IGROV-1): > 10 µM (inactive)
GI50 (NCI-H226): 25.8 µM (inactive)
GI50 (SK-OV-3): 41.7 µM (inactive)
GI50 (OVCAR-8): 28.8 µM (inactive)

C[C@@H]1OC(=O)C[C@H]2CC(=O)N(CCC3CN(S(=O)(=O)C(F)(F)F)c4ccccc43)C[C@@H]21 (stereo not given in full)
GI50 (SNB-19): > 100 µM (inactive)
GI50 (SK-MEL-5): > 100 µM (inactive)
GI50 (RXF 393): > 100 µM (inactive)
GI50 (U-251): > 100 µM (inactive)
GI50 (COLO 205): > 100 µM (inactive)
GI50 (KM12): > 100 µM (inactive)
GI50 (A498): > 100 µM (inactive)
GI50 (DU-145): > 100 µM (inactive)
GI50 (NCI-H23): > 100 µM (inactive)
GI50 (NCI-H522): > 100 µM (inactive)
GI50 (HOP-62): > 100 µM (inactive)
GI50 (SW-620): > 100 µM (inactive)
GI50 (NCI/ADR-RES): > 100 µM (inactive)
GI50 (ACHN): > 100 µM (inactive)
GI50 (SK-MEL-2): > 100 µM (inactive)
GI50 (SF-295): > 100 µM (inactive)
GI50 (Hs-578T): 85.1 µM (inactive)
GI50 (EKVX): > 100 µM (inactive)
GI50 (NCI-H460): > 100 µM (inactive)
GI50 (Malme-3M): 82.4 µM (inactive)
GI50 (K562): > 100 µM (inactive)
GI50 (A549): > 100 µM (inactive)
GI50 (HCC 2998): > 100 µM (inactive)
GI50 (CCRF-CEM): > 100 µM (inactive)
GI50 (HT-29): > 100 µM (inactive)
GI50 (SR): > 100 µM (inactive)
GI50 (HOP-92): > 100 µM (inactive)
GI50 (M14): > 100 µM (inactive)
GI50 (UO-31): > 100 µM (inactive)
GI50 (UACC-62): > 100 µM (inactive)
GI50 (MDA-MB-435): > 100 µM (inactive)
GI50 (HCT-15): > 100 µM
GI50 (OVCAR-4): > 100 µM (inactive)
GI50 (HCT-116): > 100 µM (inactive)
GI50 (PC-3): > 100 µM (inactive)
GI50 (SK-MEL-28): > 100 µM (inactive)
GI50 (OVCAR-3): > 100 µM (inactive)
GI50 (MDA-MB-231): > 100 µM (inactive)
GI50 (MCF7): > 100 µM (inactive)
GI50 (UACC-257): > 100 µM (inactive)
GI50 (RPMI-8226): > 100 µM (inactive)
GI50 (CAKI-1): > 100 µM (inactive)
GI50 (MOLT-4): > 100 µM (inactive)
GI50 (786-0): > 100 µM (inactive)
GI50 (IGROV-1): 69.7 µM (inactive)
GI50 (OVCAR-5): > 100 µM (inactive)
GI50 (SK-OV-3): > 100 µM (inactive)

C=C1CCN2CC[C@@H](OC(=O)/C(C)=C\C)[C@@H]12
GI50 (SNB-19): > 100 µM (inactive)
GI50 (SK-MEL-5): > 100 µM (inactive)
GI50 (TK-10): > 100 µM (inactive)
GI50 (RXF 393): > 100 µM (inactive)
GI50 (U-251): > 100 µM (inactive)
GI50 (COLO 205): > 100 µM (inactive)
GI50 (KM12): > 100 µM (inactive)
GI50 (A498): > 100 µM (inactive)
GI50 (DU-145): > 100 µM (inactive)
GI50 (NCI-H23): > 100 µM (inactive)
GI50 (NCI-H522): > 100 µM (inactive)
GI50 (HOP-62): > 100 µM (inactive)
GI50 (SW-620): > 100 µM (inactive)
GI50 (NCI/ADR-RES): > 100 µM (inactive)
GI50 (ACHN): > 100 µM (inactive)
GI50 (SK-MEL-2): > 100 µM (inactive)
GI50 (SF-295): > 100 µM (inactive)
GI50 (Hs-578T): > 100 µM (inactive)
GI50 (EKVX): > 100 µM (inactive)
GI50 (NCI-H460): > 100 µM (inactive)
GI50 (T47D): > 100 µM (inactive)
GI50 (Malme-3M): > 100 µM (inactive)
GI50 (K562): > 100 µM (inactive)
GI50 (A549): > 100 µM (inactive)
GI50 (HCC 2998): > 100 µM (inactive)
GI50 (CCRF-CEM): > 100 µM (inactive)
GI50 (HT-29): 66.2 µM (inactive)
GI50 (SR): > 100 µM (inactive)
GI50 (HOP-92): > 100 µM (inactive)
GI50 (SN12C): > 100 µM (inactive)
GI50 (SF-268): > 100 µM (inactive)
GI50 (M14): > 100 µM (inactive)
GI50 (UO-31): > 100 µM (inactive)
GI50 (UACC-62): > 100 µM (inactive)
GI50 (MDA-MB-435): > 100 µM (inactive)
GI50 (HCT-15): > 100 µM
GI50 (OVCAR-4): > 100 µM (inactive)
GI50 (SF-539): > 100 µM (inactive)
GI50 (HCT-116): > 100 µM (inactive)
GI50 (MDA-N): > 100 µM (inactive)
GI50 (PC-3): > 100 µM (inactive)
GI50 (SK-MEL-28): > 100 µM (inactive)
GI50 (OVCAR-3): > 100 µM (inactive)
GI50 (LOX IMVI): > 100 µM (inactive)
GI50 (MDA-MB-231): > 100 µM (inactive)
GI50 (MCF7): > 100 µM (inactive)
GI50 (SNB-75): > 100 µM (inactive)
GI50 (UACC-257): > 100 µM (inactive)
GI50 (RPMI-8226): > 100 µM (inactive)
GI50 (CAKI-1): > 100 µM (inactive)
GI50 (MOLT-4): > 100 µM (inactive)
GI50 (786-0): > 100 µM (inactive)
GI50 (IGROV-1): > 100 µM (inactive)
GI50 (OVCAR-5): > 100 µM (inactive)
GI50 (NCI-H226): > 100 µM (inactive)
GI50 (SK-OV-3): > 100 µM (inactive)
GI50 (OVCAR-8): > 100 µM (inactive)
